Assay [1] concerns MITF levels in MKN45 cells. The assay is described as follows: Immunoblotting of MITF in METTL10-knockdown cells treated with MG132. The note with it: MG132 5 µM for 5 hours. The class given is cell-based. How it is done: (§1) Protein extraction from tissues or cells was performed by lysis buffer (20 mM Tris‐HCl (pH 7.5), 150 mM NaCl, 1 mM EDTA, 1 mM EGTA, 2.5 mM sodium pyrophosphate, 1 mM β‐glycerolphosphate, 1% Triton X‐100) supplemented with 1% phenylmethylsulfonyl fluoride (PMSF; Solarbio, P0100) and protease inhibitor cocktail (Apexbio, K1007) and lysed at 4 °C for 60 min, followed by centrifugation at 12000 g for 15 min at 4 °C. For Immunoblotting, the protein concentration was determined using the Pierce BCA Protein Assay Kit (Thermo Fisher Scientific, A55864). The protein samples were denatured by boiling in SDS‐PAGE loading buffer. For immunoprecipitation, antibodies were incubated with Dynabeads Protein G (Thermo, 10004D) at 4 °C for 4 h. The supernatant was then incubated with magnetic beads conjugated with antibodies or anti‐FLAG‐M2 magnetic beads (Sigma–Aldrich, M8823) at 4 °C overnight. Following incubation, the magnetic beads were washed three times with lysis buffer and then boiled in SDS‐PAGE loading buffer. The proteins were separated by sodium dodecyl sulfate polyacrylamide gel electrophoresis (SDS‐PAGE) with One‐Step PAGE Gel Fast Preparation Kit (Vazyme), and then transferred to the PVDF Membrane (Bio‐Rad). After blocking with a protein‐free rapid blocking buffer (Epizyme, PS108P) for 15 min, the membranes were incubated with primary antibodies at 4 °C overnight. […]

Assay [2] relates to MITF protein levels in HA-PIAS3-overexpressing MKN45 cells. As to the kind of experiment: Immunoblotting of MITF in PIAS3-overexpressing cells treated with MG132. The format is cell-based. The note with it: MG132 5 µM for 5 h. The procedure: as §1
For orientation: In western blotting, separated proteins are transferred to a membrane and probed.

Here are results for one compound from publication PMC12752606, “METTL10‐Mediated PIAS3 Methylation Links Purine Metabolism to Gastric Cancer Progression” (Advanced Science, 2025).

Residues, ends and D or L forms follow the SMILES beside them. *: point of attachment. Cbz = O=C(OCc1ccccc1)*

As to `CC(C)C[C@@H](C=O)NC(=O)[C@H](CC(C)C)NC(=O)[C@H](CC(C)C)NC(=O)OCc1ccccc1` [MG132] (Cbz-Leu-Leu-Leu-aldehyde), the “Effect on decrease in MITF levels caused by knockdown of METTL10” value in assay [1] is “completely eliminated the decrease in MITF levels”. In assay [2], the “PIAS3-mediated degradation of MITF” value is recorded as “inhibited”.
